According to US9499495B2, “Quinazolines and azaquinazolines as dual inhibitors of RAS/RAF/MEK/ERK and PI3K/AKT/PTEN/mTOR pathways” (Asana Biosciences, LLC, priority 2013, dated 2016):

What was measured:
[1] = target: T1, B-RAFV600E (Homo sapiens, UniProt P15056, V600E); assay: B-RAFV600E radiometric assay; format: biochemical; settings: read-out: Kinase assay B-Raf
T1 construct: purchased Millipore, USA 14-557
How it was run: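 B-RAFV600E was preincubated 45 min at rt with compound in 1% DMSO. MEK-K97M (0.5 μg), 5 μM final cold ATP and [γ-32P]ATP were then added for 2 h at rt. Phosphorylated MEK was captured on P81 paper and scintillation-counted; IC50 came from a sigmoidal dose-response fit.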

[2] = target: T2, PI3Kα (Homo sapiens, UniProt P42336); assay: PI3 Kinase alpha TR-FRET assay; format: biochemical
T2 construct: made in house; host or cells: SF9 cells
Protocol: Compound inhibition for PI3Kα was determined in a homogeneous TR-FRET assay using a PI3Kα assay kit (Millipore, US, Catalog #33-016). The PI3 kinase catalyzes phosphorylation of […] (PIP2) to phosphatidylinositol 3,4,5-trisphosphate (PIP3) in the presence of ATP and Mg^2+. The PIP3 product is detected by displacement of biotin-PIP3 from an energy transfer complex consisting of Europium labeled anti-GST monoclonal antibody, a GST-tagged pleckstrin homology (PH) domain, biotinylated PIP3 and Streptavidin-Allophycocyanin (APC). Excitation of Europium in the complex results in an energy transfer to the APC and a fluorescence emission at 665 nm.
Compounds tested were dissolved in DMSO and directly distributed into 384-well plates at a volume of 0.5 μL. P110/P85a/PIP2 mixture (14.5 μL) was added to compound wells and incubated for 30 min at rt […]. P110/P85a was expressed in SF9 cells and purified in-house. 5 ng P110/P85a was used in the assay. The kinase reaction was started by the addition of ATP. The assay concentrations of both PIP2 and ATP were 40 μM. The reaction mixture was incubated for 30 min and was terminated by the addition of stop mix and detection mix. Fluorescence was measured at 615 and 665 nm upon excitation at 340 nm in a Victor V5 fluorometer (Perkin Elmer, US). The fluorescence emission ratio at 665 to 615 nm, proportional to the kinase activity, was plotted against the compound concentration to generate dose-response curves and IC50 values were determined.

[3] = tested on: pERK in A375 cells; assay: In Cell Western (ICW) assay, pERK in A375 cells; format: cell-based; settings: Homo sapiens, A-375, 3 h treatment
How it was run: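 RKO or A375 cells were exposed to compounds for 3 h at 37 °C, then fixed and stained in-cell with antibodies to pERK1/2 (T202/Y204), pS6RP or pAKT T308, followed by a Eu-labelled secondary. Time-resolved fluorescence (340/615 nm) was normalized to Hoechst, and IC50 values were fitted sigmoidally against DMSO as 0% inhibition.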

[4] = tested on: A375 cells; assay: XTT assay for cell viability, A375 cells; format: cell-based; settings: Homo sapiens, A-375, 72 h
How it was run: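 RKO and A375 cells seeded at 1000-2000/well overnight, then exposed to compound for 72 h at 37° C., 5% CO2. XTT (1 mg/ml)/PMS (25 μM) added for 2-3 h; absorbance at 450 nm. Growth relative to DMSO control (100%); GI50 from sigmoidal dose-response fit.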

[5] = target: T3, mTOR kinase (Homo sapiens, UniProt P42345); assay: mTOR kinase TR-FRET assay; format: biochemical
T3 construct: purchased Millipore, US
How it was run: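 TR-FRET with ULight-p70 S6K (Thr 389) peptide (50 nM) and 20 μM ATP in 50 mM HEPES pH 7.5, 1 mM EGTA, 3 mM MnCl2; compound pre-incubated with enzyme before substrate addition, reaction at rt, EDTA-stopped. Eu anti-phospho antibody read 665/615 nm; IC50 from sigmoidal dose-response fit.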

T2 sequence (P42336 whole entry, species assumed): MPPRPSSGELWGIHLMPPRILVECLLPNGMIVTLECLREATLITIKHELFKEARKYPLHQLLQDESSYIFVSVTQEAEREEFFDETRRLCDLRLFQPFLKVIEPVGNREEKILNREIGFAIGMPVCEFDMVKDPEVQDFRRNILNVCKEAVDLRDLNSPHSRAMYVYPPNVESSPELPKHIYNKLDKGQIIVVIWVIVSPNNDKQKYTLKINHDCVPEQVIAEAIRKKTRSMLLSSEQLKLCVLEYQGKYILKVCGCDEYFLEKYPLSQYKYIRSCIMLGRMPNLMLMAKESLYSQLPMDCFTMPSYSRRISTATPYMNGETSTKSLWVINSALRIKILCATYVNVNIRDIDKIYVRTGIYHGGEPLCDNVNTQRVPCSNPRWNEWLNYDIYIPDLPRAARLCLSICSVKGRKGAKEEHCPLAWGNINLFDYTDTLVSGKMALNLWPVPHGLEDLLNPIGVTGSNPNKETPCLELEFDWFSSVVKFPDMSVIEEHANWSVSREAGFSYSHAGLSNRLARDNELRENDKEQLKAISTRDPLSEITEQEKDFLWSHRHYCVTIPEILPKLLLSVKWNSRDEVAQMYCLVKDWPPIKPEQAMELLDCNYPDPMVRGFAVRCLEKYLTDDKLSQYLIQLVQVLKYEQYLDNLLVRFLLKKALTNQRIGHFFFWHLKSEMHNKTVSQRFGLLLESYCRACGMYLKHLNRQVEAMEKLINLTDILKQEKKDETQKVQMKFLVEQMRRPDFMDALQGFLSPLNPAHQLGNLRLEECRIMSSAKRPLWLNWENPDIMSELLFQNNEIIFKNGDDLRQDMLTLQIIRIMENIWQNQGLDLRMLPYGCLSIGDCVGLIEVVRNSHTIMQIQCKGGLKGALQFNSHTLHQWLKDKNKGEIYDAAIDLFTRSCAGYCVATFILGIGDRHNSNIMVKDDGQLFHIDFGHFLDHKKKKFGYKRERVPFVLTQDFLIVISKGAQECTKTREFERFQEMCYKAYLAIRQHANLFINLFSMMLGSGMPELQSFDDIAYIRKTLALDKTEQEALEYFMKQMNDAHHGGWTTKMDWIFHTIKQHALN
T2 sequence (P27986 whole entry partner, species assumed): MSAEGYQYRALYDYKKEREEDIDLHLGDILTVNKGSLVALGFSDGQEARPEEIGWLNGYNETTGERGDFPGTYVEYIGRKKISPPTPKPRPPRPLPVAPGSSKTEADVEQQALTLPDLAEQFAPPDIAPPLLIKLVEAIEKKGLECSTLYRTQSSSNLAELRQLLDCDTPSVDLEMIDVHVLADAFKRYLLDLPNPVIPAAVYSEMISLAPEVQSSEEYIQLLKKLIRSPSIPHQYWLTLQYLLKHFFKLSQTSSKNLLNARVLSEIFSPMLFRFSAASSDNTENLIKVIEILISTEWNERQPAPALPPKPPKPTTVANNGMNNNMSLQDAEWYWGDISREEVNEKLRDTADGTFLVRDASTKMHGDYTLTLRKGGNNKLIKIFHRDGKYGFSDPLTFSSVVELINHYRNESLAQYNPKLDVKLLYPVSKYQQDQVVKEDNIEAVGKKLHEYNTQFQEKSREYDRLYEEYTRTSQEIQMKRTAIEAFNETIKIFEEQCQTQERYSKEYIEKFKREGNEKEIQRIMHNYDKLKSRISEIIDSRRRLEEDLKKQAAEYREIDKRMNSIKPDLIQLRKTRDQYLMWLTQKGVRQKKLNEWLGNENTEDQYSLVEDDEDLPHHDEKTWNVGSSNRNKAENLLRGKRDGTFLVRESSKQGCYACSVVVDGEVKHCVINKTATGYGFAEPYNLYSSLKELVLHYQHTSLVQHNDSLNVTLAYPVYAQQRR
T1 sequence (P15056 416-766 V600E limits assumed): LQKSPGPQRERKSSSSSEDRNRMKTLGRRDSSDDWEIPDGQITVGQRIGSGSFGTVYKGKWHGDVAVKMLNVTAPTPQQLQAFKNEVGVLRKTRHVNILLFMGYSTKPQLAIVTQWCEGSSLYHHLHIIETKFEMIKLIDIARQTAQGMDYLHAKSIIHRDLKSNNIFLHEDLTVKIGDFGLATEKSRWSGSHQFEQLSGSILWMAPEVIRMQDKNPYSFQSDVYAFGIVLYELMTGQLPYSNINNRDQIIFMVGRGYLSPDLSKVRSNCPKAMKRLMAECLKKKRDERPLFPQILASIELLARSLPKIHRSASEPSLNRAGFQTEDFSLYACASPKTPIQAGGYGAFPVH
T3 sequence (P42345 1362-2549 limits assumed): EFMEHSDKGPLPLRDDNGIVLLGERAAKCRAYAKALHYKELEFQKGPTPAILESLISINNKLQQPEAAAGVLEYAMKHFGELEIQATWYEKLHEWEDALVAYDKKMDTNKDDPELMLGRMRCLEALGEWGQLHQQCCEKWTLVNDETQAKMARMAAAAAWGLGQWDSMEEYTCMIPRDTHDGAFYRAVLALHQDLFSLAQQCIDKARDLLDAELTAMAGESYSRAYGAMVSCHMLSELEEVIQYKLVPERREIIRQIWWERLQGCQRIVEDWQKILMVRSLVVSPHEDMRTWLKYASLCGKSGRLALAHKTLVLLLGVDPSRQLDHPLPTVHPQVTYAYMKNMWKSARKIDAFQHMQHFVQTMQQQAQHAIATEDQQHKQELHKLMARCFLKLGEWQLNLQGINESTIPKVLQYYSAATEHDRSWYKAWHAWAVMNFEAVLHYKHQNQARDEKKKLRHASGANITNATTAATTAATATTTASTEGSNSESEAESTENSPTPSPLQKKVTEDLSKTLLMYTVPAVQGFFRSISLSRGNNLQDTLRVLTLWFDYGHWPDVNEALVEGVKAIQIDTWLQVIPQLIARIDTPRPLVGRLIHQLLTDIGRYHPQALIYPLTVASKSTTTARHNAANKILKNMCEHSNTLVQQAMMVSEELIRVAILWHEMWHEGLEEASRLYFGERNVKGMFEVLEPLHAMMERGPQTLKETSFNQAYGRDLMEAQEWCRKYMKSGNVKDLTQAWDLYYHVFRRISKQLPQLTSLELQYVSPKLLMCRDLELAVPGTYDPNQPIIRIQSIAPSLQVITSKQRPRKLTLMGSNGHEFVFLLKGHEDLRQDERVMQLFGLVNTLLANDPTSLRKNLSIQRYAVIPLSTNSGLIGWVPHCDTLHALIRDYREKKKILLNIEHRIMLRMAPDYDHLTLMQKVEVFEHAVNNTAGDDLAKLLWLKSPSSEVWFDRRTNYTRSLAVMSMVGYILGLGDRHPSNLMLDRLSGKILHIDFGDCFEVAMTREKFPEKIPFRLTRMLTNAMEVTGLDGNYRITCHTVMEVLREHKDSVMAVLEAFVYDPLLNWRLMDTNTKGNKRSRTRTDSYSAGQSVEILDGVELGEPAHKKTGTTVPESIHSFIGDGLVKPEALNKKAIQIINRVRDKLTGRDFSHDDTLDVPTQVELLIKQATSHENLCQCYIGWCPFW

CCCS(=O)(=O)Nc1cccc(-c2cc(OC)c3nc(-c4cccc5[nH]ncc45)nc(N4CCOCC4)c3c2)c1F [Example 2, N-(3-(2-(1H-indazol-4-yl)-8-methoxy-4-morpholinoquinazolin-6-yl)-2-fluorophenyl) propane-1-sulfonamide]
IC50 [1]: 1 to 100 nM | IC50 [2]: 100 to 1000 nM | IC50 [3]: 100 to 1000 nM | IC50 [4]: 100 to 1000 nM

CCCS(=O)(=O)Nc1cccc(-c2cc(OC)c3nc(-c4ccc(NCCN)nc4)nc(N4CCOCC4)c3c2)c1F [Example 3]
IC50 [1]: 1 to 100 nM | IC50 [2]: 100 to 1000 nM | IC50 [3]: 1 to 100 nM | IC50 [4]: 1000 to 10000 nM

CCCS(=O)(=O)Nc1cccc(-c2cc(OC)c3nc(-c4cnc(N)cc4C(F)(F)F)nc(N4CCOCC4)c3c2)c1F [Example 25, N-(3-(2-(6-amino-4-(trifluoromethyl)pyridin-3-yl)-8-methoxy-4-morpholinoquinazolin-6-yl)-2-fluorophenyl)propane-1-sulfonamide]
IC50 [1]: 100 to 1000 nM | IC50 [2]: 100 to 1000 nM | IC50 [3]: 100 to 1000 nM

CCCS(=O)(=O)Nc1cccc(-c2cc(OC)c3nc(-c4cnc(N)c(C)c4)nc(N4CCOCC4)c3c2)c1F [Example 26, N-(3-(2-(6-amino-5-methylpyridin-3-yl)-8-methoxy-4-morpholinoquinazolin-6-yl)-2-fluorophenyl)propane-1-sulfonamide]
IC50 [1]: 100 to 1000 nM | IC50 [2]: 100 to 1000 nM | IC50 [3]: 100 to 1000 nM | IC50 [4]: 100 to 1000 nM

CCCS(=O)(=O)Nc1cccc(-c2cc(OC)c3nc(-c4cnc(N)c(Cl)c4)nc(N4CCOCC4)c3c2)c1F [Example 48, N-(3-(2-(6-amino-5-chloropyridin-3-yl)-8-methoxy-4-morpholinoquinazolin-6-yl)-2-fluorophenyl)propane-1-sulfonamide]
IC50 [1]: 1 to 100 nM | IC50 [2]: 100 to 1000 nM

NCCOc1cc(-c2cccc(NS(=O)(=O)CCCF)c2F)cc2c(N3CCOCC3)nc(-c3ccc(N)nc3)nc12 [Example 56, N-(3-(8-(2-aminoethoxy)-2-(6-aminopyridtn-3-yl)-4-morpholinoquinazolin-6-yl)-2-fluorophenyl)-3-fluoropropane-1-sulfonamide]
IC50 [1]: 1 to 100 nM | IC50 [2]: 100 to 1000 nM | IC50 [5]: 1 to 100 nM | IC50 [3]: 1 to 100 nM

COc1cc(-c2c(F)ccc(NS(=O)(=O)CCCF)c2F)cc2c(N3CCOCC3)nc(-c3cnc(N)cc3C(F)(F)F)nc12 [Example 84, N-(3-(2-(6-amino-4-(trifluoromethyl)pyridin~3-yl)-8-methoxy-4-morpholinoquinazolin-6-yl)-2,4-difluorophenyl)-3-fluoropropane-1-sulfonamide]
IC50 [1]: 1 to 100 nM | IC50 [2]: 100 to 1000 nM

O=S(=O)(CCCF)Nc1cccc(-c2ccc3nc(-c4cccc5[nH]ncc45)nc(N4CCOCC4)c3n2)c1F [Example 89, N-(3-(2-(1H-indazol-4-yl)-4-morpholinopyrido[3,2-d]pyrimidin-6-yl)-2-fluorophenyl)-3-fluoropropane-1-sulfonamide]
IC50 [1]: 1 to 100 nM | IC50 [2]: 100 to 1000 nM | IC50 [5]: 100 to 1000 nM

O=S(=O)(CCCF)Nc1cccc(-c2ccc3nc(-c4cnc5[nH]ccc5c4)nc(N4CCOCC4)c3n2)c1F [Example 91, 3-fluoro-N-(2-fluoro-3-(4-morpholtno-2-(1H-pyrrolo[2,3-b]pyrldin-5-yl)pyrido[3,2-d]pyrimidin-6-yl)phenyl)propane-1-sulfonamide]
IC50 [1]: 1 to 100 nM | IC50 [2]: 1 to 100 nM | IC50 [5]: 1 to 100 nM

Nc1ncc(-c2nc(N3CCOCC3)c3nc(-c4cccc(NS(=O)(=O)c5c(F)cccc5F)c4F)ccc3n2)cn1 [Example 98, N-(3-(2-(2-aminopyrimidin-5-yl)-4-morpholinopyrido[3,2-d]pyrimidin-6-yl)-2-fluorophenyl)-2,6-difluorobenzenesulfonamide]
IC50 [1]: 1 to 100 nM | IC50 [2]: 1 to 100 nM | IC50 [5]: 100 to 1000 nM

C[C@@H]1COCCN1c1nc(-c2cnc(N)cc2C(F)(F)F)nc2ccc(-c3cccc(NS(=O)(=O)CCCF)c3F)nc12 [Example 107, (R)-N-(3-(2-(6-amlno-4-(trifluoromethyl)pyridin-3-yl)-4-(3-methylmorpholino)pyrido[3,2-d]pyrimidin-6-yl)-2-fluorophenyl)-3-fluoropropane-1-sulfonamide]
IC50 [1]: 1 to 100 nM | IC50 [2]: 100 to 1000 nM

CCCNc1ncc(-c2nc(N3CCOCC3)c3nc(-c4cccc(NS(=O)(=O)CCCF)c4F)ccc3n2)cn1 [Example 112, 3-fluoro-N-(2-fluoro-3-(4-morpholino-2-(2-(propylamino)pyrimidin-5-yl)pyrido[3,2-d]pyrimidin-6-yl)phenyl)propane-1-sulfonamide]
IC50 [1]: 1 to 100 nM | IC50 [2]: 100 to 1000 nM

CCCNc1ccc(-c2nc(N3CCOCC3)c3nc(-c4cccc(NS(=O)(=O)CCCF)c4F)ccc3n2)cn1 [Example 115, 3-fluoro-N-(2-fluoro-3-(4-morpholino-2-(6-(propylamino)pyridin-3-yl)pyrido[3,2-d]pyrimidin-6-yl)phenyl)propane-1-sulfonamide]
IC50 [1]: 1 to 100 nM | IC50 [2]: 100 to 1000 nM | IC50 [5]: 100 to 1000 nM

CNc1ncc(-c2nc(N3CCOCC3)c3nc(-c4cccc(NS(=O)(=O)CCCF)c4F)ccc3n2)cn1 [Example 121, 3-fluoro-N-(2-fluoro-3-(2-(2-(methylamino)pyrimidin-5-yl)-4-morpholinopyrido[3,2-d]pyrimidin-6-yl)phenyl)propane-1-sulfonamide]
IC50 [1]: 1 to 100 nM | IC50 [2]: 1 to 100 nM | IC50 [5]: 100 to 1000 nM | IC50 [3]: 100 to 1000 nM

CCNc1ncc(-c2nc(N3CCOCC3)c3nc(-c4cccc(NS(=O)(=O)CCCF)c4F)ccc3n2)cn1 [Example 122, N-(3-(2-(2-(ethylamino)pyrimidin-5-yl)-4-morpholinopyrido[3,2-d]pyrimidin-6-yl)-2-fluorophenyl)-3-fluoropropane-1-sulfonamide]
IC50 [1]: 1 to 100 nM | IC50 [2]: 100 to 1000 nM

C[C@H]1COCCN1c1nc(-c2ccc(N)nc2)nc2ccc(-c3cccc(NS(=O)(=O)CCCF)c3F)nc12 [Example 127, (S)-N-(3-(2-(6-aminopyridin-3-yl)-4-(3-methylmorpholino)pyrido[3,2-d]pyrimidin-6-yl)-2-fluorophenyl)-3-fluoropropane-1-sulfonamide]
IC50 [1]: 100 to 1000 nM | IC50 [2]: 1 to 100 nM | IC50 [5]: 1 to 100 nM | IC50 [3]: 100 to 1000 nM

C[C@H]1COCCN1c1nc(-c2cnc(N)nc2)nc2ccc(-c3cccc(NS(=O)(=O)CCCF)c3F)nc12 [Example 128, (S)-N-(3-(2-(2-aminopyrimidin-5-yl)-4-(3-methylrnorpholino)pyrido[3,2-d]pyrimidin-6-yl)-2-fluorophenyl)-3-fluoropropane-1-sulfonamide]
IC50 [1]: 1 to 100 nM | IC50 [2]: 1 to 100 nM | IC50 [5]: 100 to 1000 nM | IC50 [3]: 100 to 1000 nM

Cc1cc(N)ncc1-c1nc(N2CCOC[C@@H]2C)c2nc(-c3cccc(NS(=O)(=O)CCCF)c3F)ccc2n1 [Example 130, (S)-N-(3-(2-(6-amino-4-methylpyridin-3-yl)-4-(3-methylmorpholino)pyrido[3,2-d]pyrimidin-6-yl)-2-fluorophenyl)-3-fluoropropane-1-sulfonamide]
IC50 [1]: 100 to 1000 nM | IC50 [2]: 1 to 100 nM | IC50 [5]: 100 to 1000 nM | IC50 [3]: 100 to 1000 nM

Cc1nc(N)ncc1-c1nc(N2CCOC[C@@H]2C)c2nc(-c3cccc(NS(=O)(=O)CCCF)c3F)ccc2n1 [Example 131, (S)-N-(3-(2-(2-amino-4-methylpyrimidin-5-yl)-4-(3-methylmorpholino)pyrido[3,2-d]pyrimidin-6-yl)-2-fluorophenyl)-3-fluoropropane-1-sulfonamide]
IC50 [1]: 100 to 1000 nM | IC50 [2]: 1 to 100 nM | IC50 [5]: 100 to 1000 nM | IC50 [3]: 100 to 1000 nM

Cc1nc(N)ncc1-c1nc(N2CCOC[C@@H]2C)c2nc(-c3cccc(NS(=O)(=O)c4cc(F)ccc4F)c3F)ccc2n1 [Example 132, (S)-N-(3-(2-(2-amino-4-methylpyrimidin-5-yl)-4-(3-methylmorpholino)pyrido[3,2-d]pyrimidin-6-yl)-2-fluorophenyl)-2,5-difluorobenzenesulfonamide]
IC50 [1]: 1 to 100 nM | IC50 [2]: 1 to 100 nM | IC50 [5]: 100 to 1000 nM | IC50 [3]: 100 to 1000 nM
